# “And” between values parts separate entries of the source, which are not always exact repeats. Identical values can stand only once.
# Molecular target: T1, human mGluR5d (Homo sapiens, UniProt P41594)
# T1 construct: expressed in transfected cells
# Experiment: FLIPR assay of mGluR5 antagonism (intracellular calcium mobilization)
# Assay type: cell-based
# Settings: cells expressing human mGluR5d
# Source text: The properties of the compounds of the invention can be analyzed using standard assays for pharmacological activity. Examples of glutamate receptor assays are well known in the art as described in for example Aramori et al., Neuron 8:757 (1992), Tanabe et al., Neuron 8:169 (1992), Miller et al., J. Neuroscience 15: 6103 (1995), Balazs, et al., J. Neurochemistry 69:151 (1997). The methodology described in these publications is incorporated herein by reference. Conveniently, the compounds of the invention can be studied by means of an assay (FLIPR) that measures the mobilization of intracellular calcium, [Ca^2+]i in cells expressing mGluR5 or another assay (IP3) that measures inositol phosphate turnover.
# Cells expressing human mGluR5d as described in WO97/05252 are seeded at a density of 100,000 cells per well on collagen coated clear bottom 96-well plates with black sides and experiments are done 24 h following seeding. All assays are done in a buffer containing 127 mM NaCl, 5 mM KCl, 2 mM MgCl2, 0.7 mM NaH2PO4, 2 mM CaCl2, 0.422 mg/mL NaHCO3, 2.4 mg/mL HEPES, 1.8 mg/mL glucose and 1 mg/mL BSA Fraction IV (pH 7.4). Cell cultures in the 96-well plates are loaded for 60 minutes in the above mentioned buffer containing 4 μM of the acetoxymethyl ester form of the fluorescent calcium indicator fluo-3 (Molecular Probes, Eugene, Oreg.) in 0.01% pluronic acid (a proprietary, non-ionic surfactant polyol—CAS Number 9003-11-6). Following the loading period the fluo-3 buffer is removed and replaced with fresh assay buffer. FLIPR experiments are done using a laser setting of 0.800 W and a 0.4 second CCD camera shutter speed with excitation and emission wavelengths of 488 nm and 562 nm, respectively. Each experiment is initiated with 160 μl of buffer present in each well of the cell plate. A 40 μl addition from the antagonist plate was followed by a 50 μL addition from the agonist plate. A 30 minute interval separates the antagonist and agonist additions. The fluorescence signal is sampled 50 times at 1 second intervals followed by 3 samples at 5 second intervals immediately after each of the two additions. Responses are measured as the difference between the peak height of the response to agonist, less the background fluorescence within the sample period. IC50 determinations are made using a linear least squares fitting program.
# T1 sequence (P41594 21-942 isoform P41594-3 limits assumed): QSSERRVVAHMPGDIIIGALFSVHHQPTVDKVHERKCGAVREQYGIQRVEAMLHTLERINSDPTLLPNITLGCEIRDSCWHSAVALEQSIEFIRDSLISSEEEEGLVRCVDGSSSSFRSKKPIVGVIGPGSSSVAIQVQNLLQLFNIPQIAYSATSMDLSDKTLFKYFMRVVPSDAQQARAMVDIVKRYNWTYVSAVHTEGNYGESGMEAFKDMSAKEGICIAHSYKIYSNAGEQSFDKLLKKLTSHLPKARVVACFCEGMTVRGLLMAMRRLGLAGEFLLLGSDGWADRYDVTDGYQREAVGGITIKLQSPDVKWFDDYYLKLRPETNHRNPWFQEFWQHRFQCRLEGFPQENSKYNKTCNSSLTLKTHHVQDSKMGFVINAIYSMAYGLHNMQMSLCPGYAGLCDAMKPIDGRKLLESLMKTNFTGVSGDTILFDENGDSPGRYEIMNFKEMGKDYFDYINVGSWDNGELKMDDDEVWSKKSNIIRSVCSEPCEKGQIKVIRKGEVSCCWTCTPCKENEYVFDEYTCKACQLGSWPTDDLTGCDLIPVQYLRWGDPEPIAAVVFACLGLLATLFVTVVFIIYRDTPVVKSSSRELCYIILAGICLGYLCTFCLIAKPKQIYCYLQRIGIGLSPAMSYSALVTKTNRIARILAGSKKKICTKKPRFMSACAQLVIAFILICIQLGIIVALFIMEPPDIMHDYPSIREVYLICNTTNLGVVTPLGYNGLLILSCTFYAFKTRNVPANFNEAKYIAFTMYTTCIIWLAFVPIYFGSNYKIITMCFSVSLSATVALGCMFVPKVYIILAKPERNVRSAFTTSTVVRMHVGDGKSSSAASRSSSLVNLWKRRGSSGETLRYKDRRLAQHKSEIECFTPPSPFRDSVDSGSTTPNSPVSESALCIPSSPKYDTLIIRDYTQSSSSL
row,SMILES,IC50
1,"C[C@@H](Oc1nnc(-c2cc[nH]c(=O)c2)n1C)c1cc(-c2cccc(Cl)c2)on1 [Example 37.3, 4-(5-{(1R)-1-[5-(3-Chlorophenyl)isoxazol-3-yl]ethoxy}-4-methyl-4H-1,2,4-triazol-3-yl)pyridin-2(1H)-one]",10 nM
2,"C[C@@H](Oc1nnc(-c2ccn(C)c(=O)c2)n1C)c1noc(-c2cccc(Cl)c2)n1 [Example 36.2, 4-(5-{(1R)-1-[5-(3-Chlorophenyl)-1,2,4-oxadiazol-3-yl]ethoxy}-4-methyl-4H-1,2,4-triazol-3-yl)-1-methylpyridin-2(1H)-one]",20 nM
3,"C[C@@H](Oc1nnc(-c2ccn(C)c(=O)c2)n1C)c1cc(-c2cccc(Cl)c2)on1 [Example 36.1, 4-(5-{(1R)-1-[5-(3-Chlorophenyl)isoxazol-3-yl]ethoxy}-4-methyl-4H-1,2,4-triazol-3-yl)-1-methylpyridin-2(1H)-one]",19 nM
4,"Cn1c(OCc2cc(-c3cccc(Cl)c3)on2)nnc1-c1cc[nH]c(=O)c1 [Example 37.2, 4-(5-{[5-(3-chlorophenyl)isoxazol-3-yl]methoxy}-4-methyl-4H-1,2,4-triazol-3-yl)pyridin-2(1H)-one]",> 3000 nM and 1580 nM

# Second part, the compound after the results:
row,IC50,SMILES
1,13 nM,"C[C@@H](Oc1nnc(-c2cc[nH]c(=O)c2)n1C)c1noc(-c2cccc(Cl)c2)n1 [Example 38.1, 4-(5-{(R)-1-[5-(3-Chloro-phenyl)-[1,2,4]oxadiazol-3-yl]-ethoxy}-4-methyl-4H-[1,2,4]triazol-3-yl)-1H-pyridin-2-one]"
2,7 nM,"Cc1cccc(-n2nnc([C@@H](C)Oc3nnc(-c4cn[nH]c(=O)c4)n3C)n2)c1 [Example 38.6, 5-(4-Methyl-5-{(1R)-1-[2-(3-methylphenyl)-2H-tetrazol-5-yl]ethoxy}-4H-1,2,4-triazol-3-yl)pyridazin-3(2H)-one]"
3,12 nM,"Cc1cccc(-c2cc([C@@H](C)Oc3nnc(-c4cn[nH]c(=O)c4)n3C)no2)c1 [Example 38.7, 5-(4-Methyl-5-{(1R)-1-[5-(3-methylphenyl)isoxazol-3-yl]ethoxy}-4H-1,2,4-triazol-3-yl)pyridazin-3(2H)-one]"
4,6 nM,"C[C@@H](Oc1nnc(-c2cn[nH]c(=O)c2)n1C)c1nnn(-c2cccc(Cl)c2)n1 [Example 38.3, 5-(5-{(1R)-1-[2-(3-Chlorophenyl)-2H-tetrazol-5-yl]ethoxy}-4-methyl-4H-1,2,4-triazol-3-yl)pyridazin-3(2H)-one]"
5,15 nM,"C[C@@H](Oc1nnc(-c2cn[nH]c(=O)c2)n1C)c1noc(-c2cccc(Cl)c2)n1 [Example 38.4, 5-(5-{(1R)-1-[5-(3-Chlorophenyl)-1,2,4-oxadiazol-3-yl]ethoxy}-4-methyl-4H-1,2,4-triazol-3-yl)pyridazin-3(2H)-one]"
6,9 nM,"C[C@@H](Oc1nnc(-c2cc[nH]c(=O)c2)n1C)c1nnn(-c2cccc(Cl)c2)n1 [Example 38.2, 4-(5-{(1R)-1-[2-(3-Chlorophenyl)-2H-tetrazol-5-yl]ethoxy}-4-methyl-4H-1,2,4-triazol-3-yl)pyridin-2(1H)-one]"
7,8 nM,"C[C@@H](Oc1nnc(-c2cn[nH]c(=O)c2)n1C)c1cc(-c2cccc(Cl)c2)on1 [Example 38.5, 5-(5-{(1R)-1-[5-(3-Chlorophenyl)isoxazol-3-yl]ethoxy}-4-methyl-4H-1,2,4-triazol-3-yl)pyridazin-3(2H)-one]"

# Tested on: not listed separately
# Experiment: Determination of brain to plasma ratio (B/P ratio) in rat
# Assay type: in vivo, female Sprague Dawley rats
# Settings: female, Sprague-Dawley, read-out: B/P Ratio (drug in brain over drug in plasma)
# Procedure: Brain to plasma ratios are estimated in female Sprague Dawley rats. The compound is dissolved in water or another appropriate vehicle. For determination of brain to plasma ratio the compound is administrated as a subcutaneous, or an intravenous bolus injection, or an intravenous infusion, or an oral administration. At a predetermined time point after the administration a blood sample is taken with cardiac puncture. The rat is terminated by cutting the heart open, and the brain is immediately retained. The blood samples are collected in heparinized tubes and centrifuged within 30 minutes, in order to separate the plasma from the blood cells. The plasma is transferred to 96-well plates and stored at −20° C. until analysis. The brains are divided in half, and each half is placed in a pre-tarred tube and stored at −20° C. until analysis. Prior to the analysis, the brain samples are thawed and 3 mL/g brain tissue of distilled water is added to the tubes. The brain samples are sonicated in an ice bath until the samples are homogenized. Both brain and plasma samples are precipitated with acetonitrile. After centrifugation, the supernatant is diluted with 0.2% formic acid. […] After reconstitution of the residuals the samples are ready for injection onto the HPLC column.
row,Kp,SMILES
1,0.02,"C[C@@H](Oc1nnc(-c2cc[nH]c(=O)c2)n1C)c1cc(-c2cccc(Cl)c2)on1 [Example 37.3, 4-(5-{(1R)-1-[5-(3-Chlorophenyl)isoxazol-3-yl]ethoxy}-4-methyl-4H-1,2,4-triazol-3-yl)pyridin-2(1H)-one]"
2,0.8,C[C@@H](Oc1nnc(-c2ccncc2)n1C)c1cc(-c2cccc(Cl)c2)on1 [reference compound]

# Source: patent US7772235B2, “mGluR5 modulators” (Astrazeneca AB, priority 2006, dated 2010)
